One series has as its system gray mold of cucumber. The series is described as follows: Spawn growth rate on agar plates (Embodiment 9). The settings on record: 48 h. In kind it is cell-based, Botrytis cinerea.
In a further series the test system is early blight of tomato. The series is described as follows: Spawn growth rate on agar plates (Embodiment 9). The class given is cell-based, Alternaria solania. The settings on record: 48 h, testing concentration of 100 μg/g; Table 6.
Series [1] deals with Rice Sheath Blight Disease (sheath and culm blight of rice). Kind of series: Spawn growth rate on agar plates (Embodiment 9). The settings on record: 48 h. The class given is cell-based, Rhizoctonia solani.
The next series deals with wheat scab. Kind of series: microbe, parasite or virus in culture. In kind it is cell-based, Gibberella zeae. The settings on record: for inhibition of growth at 100 µg/g: 48 h, read-out: Wheat scab Average inhibition rate (%).
Series [2] relates to Rice Sheath Blight Disease. The series is described as follows: Microbicidal activity, spray then strip inoculation (Embodiment 8). The settings on record: for pest or weed control at 500 µg/g: Oryza sativa, read-out: Rice Sheath Blight Disease Average inhibition rate (%).
Protocol: (§1) (Pseudomonassyringaepv. tomato (Okabe) Young, Dye & Wilkie), Cucumber Angular Leaf Spot, Rice Sheath Blight Disease (Rhizoctonia solani), Corynespora Leaf Spot of Cucumber (Corynespora cassiicola), Downy Mildew of Cucumber (Cucumber Downy Mildew).
(§2) Testing agents and control agents were sprayed uniformly at A.M. of a sunshine day on the cucumber seminal leaves. After 2 hours, the leaves were inoculated with pathogenic microbes and cultured at humidity. […] Strip inoculation is used for Rice Sheath Blight Disease and phytophthora blight of pepper, in which the liquor was sprayed and after 2 hours, inoculation of strips was performed followed by culturing at humidity. After full occurrence of diseases in the control group, state of illness was examined according to grading standards, and a disease index and inhibition rate were calculated.
The test system of series [3] is Corynespora Leaf Spot of Cucumber. Kind of series: Microbicidal activity on cucumber seedlings, spray then spore inoculation (Embodiment 8). The settings on record: for pest or weed control at 500 µg/g: Corynespora, in Cucumis sativus, read-out: Corynespora Leaf Spot of Cucumber Average inhibition rate (%).
Protocol: as §1, §2
The subject of another series is Downy Mildew of Cucumber. The description is as above. The settings on record: for pest or weed control at 500 µg/g: Cucumis sativus, read-out: Downy Mildew of Cucumber Average inhibition rate (%).
Series [4] has as its system Cucumber Angular Leaf Spot. The series is described as follows: Microbicidal activity on cucumber seedlings, spray then inoculation (Embodiment 8). The settings on record: Cucumis sativus, read-out: Cucumber Angular Leaf Spot Average inhibition rate (%).
Protocol: as §1, §2
Setting [5] is: Concentration 12.5 μg/g, Table 8.
The mark [6] stands for this setting: testing concentration of 100 μg/g, Table 6, read-out: Gray mold of cucumber Average inhibition rate (%).
Setting [7] is: testing concentration of 100 μg/g, Table 6, read-out: Sheath and culm blight of rice Average inhibition rate (%).
Setting [8] is: testing concentration of 100 μg/g, Table 4, read-out: Gray mold of cucumber Average inhibition rate (%).
[9] abbreviates: testing concentration of 500 μg/g.

Results on 32 compounds are retold here after patent US8865724B2, “Preparation of 2-methyl-4-amino-5(substituted-1H-1,2,3-triazolyl)methylpyrimidine derivatives and microbicidal activity thereof” (Central China Normal University, priority 2011, dated 2014).

Like-named read-outs stand apart in the source and are kept apart here.

Protocol for Downy Mildew of Cucumber: as §1, §2

For the compound `Cc1ncc(Cn2nnc(COc3ccc(Br)cc3)c2I)c(N)n1` [Compound 84], the melting point – broadly, the temperature of the solid-liquid transition – was 138 to 140 °C. Further, the inhibition of growth at 12.5 µg/g with gray mold of cucumber (setting [5]) came out at 66%. Also, in the series with gray mold of cucumber (Concentration 25 μg/g, Table 8), the inhibition of growth at 25 µg/g was determined as 90%. Also, the inhibition of growth at 50 µg/g in the series with gray mold of cucumber (Concentration 50 μg/g, Table 8) was found to be 94%. The inhibition of growth at 100 µg/g in the series with gray mold of cucumber (setting [6]) was 93%. The same compound had an inhibition of growth at 100 µg/g with early blight of tomato of 58%. In series [1] (setting [5]), this compound gave an inhibition of growth at 12.5 µg/g of 73%. In addition, in series [1] (Concentration 25 μg/g, Table 8), the inhibition of growth at 25 µg/g came out at 95%. The inhibition of growth at 50 µg/g in series [1] (Concentration 50 μg/g, Table 8) was found to be 97%. Besides, the inhibition of growth at 100 µg/g in series [1] (setting [7]) came to 98%. In addition, the inhibition of growth at 100 µg/g in the series on wheat scab stood at 62%.

Consider `COC(=O)Cc1ccc(OCc2cn(Cc3cnc(C)nc3N)nn2)cc1` [Compound 9], for which the melting point fell in the range of 142 to 143 °C. Besides, in series [2], the pest or weed control at 500 µg/g amounted to 90%. For the same compound, the pest or weed control at 500 µg/g in series [3] stood at 60%. In addition, the inhibition of growth at 100 µg/g in the series on gray mold of cucumber (setting [8]) came to 79%. In addition, the pest or weed control at 500 µg/g in the series on Downy Mildew of Cucumber was 80%. Further, the pest or weed control at 500 µg/g in series [4] was 60%.

On to `Cc1ncc(Cn2nnc(COc3ccccc3)c2I)c(N)n1` [Compound 23], for which the inhibition of growth at 100 µg/g in the series with gray mold of cucumber (setting [6]) was found to be 88%; in the series on early blight of tomato it was 57%; in series [1] (setting [7]), 96%; in the series on wheat scab it was 59%.

With jingangmycin [reference compound], the “Rice Sheath Blight Disease Average inhibition rate (%)” value in series [2] (setting [9]) was 70%. In addition, in series [3] (setting [9]), the “Corynespora Leaf Spot of Cucumber Average inhibition rate (%)” value was found to be 70%. In the series on Downy Mildew of Cucumber (setting [9]), the “Downy Mildew of Cucumber Average inhibition rate (%)” value was determined as 70%.

Take `COc1ccc(C(=CC(=O)N2CCOCC2)c2ccc(Cl)cc2)cc1OC` [Dimethomorph, reference compound]: the pest or weed control at 500 µg/g in [2] worked out at 90%; in series [3], 70%; with Downy Mildew of Cucumber it was 90%.

In turn, `Cc1ncc(Cn2cc(COc3ccc(F)cc3Cl)nn2)c(N)n1` [Compound 6] had a melting point of 169 to 171 °C. Besides, in series [2], the pest or weed control at 500 µg/g is 70%. Besides, the pest or weed control at 500 µg/g in series [3] was found to be 90%. The inhibition of growth at 100 µg/g with gray mold of cucumber (setting [8]) amounted to 63%. Further, in the series on Downy Mildew of Cucumber, the pest or weed control at 500 µg/g turned out to be 30%. For the same compound, the pest or weed control at 500 µg/g in [4] was found to be 65%.

Regarding `COC(=O)NC(=S)Nc1ccccc1NC(=S)NC(=O)OC` [Thiophanate-methyl, reference compound], the pest or weed control at 500 µg/g stood at 85% in [2], 80% in series [3] and 20% in the series with Downy Mildew of Cucumber.

Consider `CC1COC(Cn2cncn2)(c2ccc(Oc3ccc(Cl)cc3)cc2Cl)O1` (stereo not drawn) [Difenoconazole, reference compound], for which the inhibition of growth at 100 µg/g with gray mold of cucumber (Concentration 100 μg/g, Table 7, read-out: Gray mold of cucumber (inhibition)) was found to be 86%; with gray mold of cucumber (Concentration 100 μg/g, Table 8, read-out: Gray mold of cucumber (inhibition)), 96%; in the series with gray mold of cucumber (setting [8]) it was 73%; in the series with gray mold of cucumber (setting [6]), 96%; in the series with early blight of tomato it was 100%; in series [1] (Concentration 100 μg/g, Table 7, read-out: Sheath and culm blight of rice (inhibition)), 91%. The inhibition of growth at 100 µg/g in series [1] (Concentration 100 μg/g, Table 8, read-out: Sheath and culm blight of rice (inhibition)) came to 100%; in series [1] (setting [7]), 100%; in the series on wheat scab, 98%. Further, the “Wheat scab (inhibition)” value with wheat scab (Concentration 100 μg/g, Table 7) amounted to 95%.

Compound `Cc1ncc(Cn2cc(COc3ccc(Cl)c(C)c3)nn2)c(N)n1` [Compound 11] had a melting point of 142 to 143 °C. Also, the pest or weed control at 500 µg/g in series [2] is 70%. Also, in [3], the pest or weed control at 500 µg/g turned out to be 65%. Moreover, the inhibition of growth at 100 µg/g in the series with gray mold of cucumber (setting [8]) amounted to 67%. Also, the pest or weed control at 500 µg/g in the series on Downy Mildew of Cucumber amounted to 50%. The pest or weed control at 500 µg/g in series [4] stood at 60%. The inhibition of growth at 100 µg/g in the series with wheat scab stood at 54%.

Turning to `Cc1ncc(Cn2cc(COc3ccccc3[N+](=O)[O-])nn2)c(N)n1` [Compound 16], the melting point is 184 to 185 °C. In [2], the pest or weed control at 500 µg/g stood at 70%. In addition, in series [3], the pest or weed control at 500 µg/g amounted to 80%. Moreover, in the series with gray mold of cucumber (setting [8]), the inhibition of growth at 100 µg/g stood at 82%. In addition, the pest or weed control at 500 µg/g in the series with Downy Mildew of Cucumber is 50%. Besides, the pest or weed control at 500 µg/g in series [4] was 70%. Further, in the series with wheat scab, the inhibition of growth at 100 µg/g was 63%.

With `Cc1ncc(Cn2cc(COC(=O)COc3ccc(F)cc3Cl)nn2)c(N)n1` [Compound 60], the melting point was 144 to 146 °C.

As for `Cc1ncc(Cn2cc(COc3ccccc3)nn2)c(N)n1` [Compound 12], the melting point lay within 132 to 133 °C. Moreover, the pest or weed control at 500 µg/g in [2] was 80%. Further, the pest or weed control at 500 µg/g in series [3] came out at 70%. Also, in the series on gray mold of cucumber (setting [8]), the inhibition of growth at 100 µg/g was found to be 53%. Besides, the pest or weed control at 500 µg/g in the series on Downy Mildew of Cucumber amounted to 70%. In addition, the pest or weed control at 500 µg/g in [4] was found to be 60%.

In the case of `Cc1ccc(C(=O)OCc2nnn(Cc3cnc(C)nc3N)c2I)cc1` [Compound 92], the melting point is 200 to 201 °C.

`Cc1ncc(Cn2cc(CNC(=O)COc3ccc([N+](=O)[O-])cc3Cl)nn2)c(N)n1` [Compound 72]: the melting point fell in the range of 183 to 184 °C.

`Cc1ncc(Cn2cc(CNC(=O)c3cccc(Cl)c3)nn2)c(N)n1` [Compound 50] showed a melting point of 213 to 214 °C.

In the case of `Cc1ncc(Cn2cc(COC(=O)COc3ccccc3[N+](=O)[O-])nn2)c(N)n1` [Compound 65], the melting point was 158 to 160 °C.

In the case of `CCOC(=O)c1ccc(OCc2cn(Cc3cnc(C)nc3N)nn2)cc1` [Compound 3], the melting point lay in the range of 190 to 192 °C. The pest or weed control at 500 µg/g in series [2] was found to be 80%. Also, in [3], the pest or weed control at 500 µg/g turned out to be 80%. The inhibition of growth at 100 µg/g in the series on gray mold of cucumber (setting [8]) was determined as 70%. For the same compound, the pest or weed control at 500 µg/g with Downy Mildew of Cucumber was 60%. Further, the pest or weed control at 500 µg/g in series [4] was found to be 60%.

`CCOC(=O)c1ccc(OCc2nnn(Cc3cnc(C)nc3N)c2I)cc1` [Compound 87]: the melting point fell in the range of 146 to 147 °C.

Compound `Cc1ncc(Cn2nnc(COC(=O)c3ccc([N+](=O)[O-])cc3)c2I)c(N)n1` [Compound 95] yielded a melting point of 192 to 193 °C.

Regarding `Cc1ncc(Cn2cc(COC(=O)c3cccc([N+](=O)[O-])c3)nn2)c(N)n1` [Compound 41], the melting point is 159 to 160 °C.

As to `Cc1ccc(OCC(=O)NCc2cn(Cc3cnc(C)nc3N)nn2)cc1` [Compound 70], the melting point lay within 117 to 119 °C.

Compound `Cc1ncc(Cn2cc(COc3ccccc3C)nn2)c(N)n1` [Compound 18] yielded a melting point of 153 to 154 °C.

Consider `Cc1ncc(Cn2cc(COc3ccc([N+](=O)[O-])cc3)nn2)c(N)n1` [Compound 1], for which the pest or weed control at 500 µg/g in [2] is 90%; in series [3], 50%; in the series with Downy Mildew of Cucumber, 75%; in series [4], 60%.

In the case of `COc1ccc(OCC(=O)NCc2cn(Cc3cnc(C)nc3N)nn2)cc1` [Compound 75], the melting point lay in the range of 165 to 166 °C.

`Cc1ncc(Cn2cc(COC(=O)COc3cccc(C(F)(F)F)c3)nn2)c(N)n1` [Compound 62]: the melting point lay in the range of 138 to 140 °C.

Compound `Cc1ncc(Cn2cc(COC(=O)COc3ccc(Cl)c(C)c3)nn2)c(N)n1` [Compound 55] had a melting point of 163 to 165 °C.

With `Cc1ncc(Cn2nnc(CNC(=O)c3ccc(F)cc3)c2I)c(N)n1` [Compound 104], the melting point was in the range of 217 to 219 °C.

In the case of `Cc1ncc(Cn2nnc(COc3ccc([N+](=O)[O-])cc3Cl)c2I)c(N)n1` [Compound 30], the melting point was in the range of 223 to 225 °C.

Compound `Cc1ncc(Cn2nnc(CNC(=O)c3ccc(Cl)cc3)c2I)c(N)n1` [Compound 103] displayed a melting point of 231 to 233 °C.

In the case of `Cc1ncc(Cn2cc(COC(=O)COc3cccc(C)c3C)nn2)c(N)n1` [Compound 63], the melting point was 168 to 171 °C.

For `COc1ccc(OCc2cn(Cc3cnc(C)nc3N)nn2)cc1` [Compound 13], the melting point was in the range of 115 to 117 °C. The pest or weed control at 500 µg/g in [2] turned out to be 70%. For the same compound, the pest or weed control at 500 µg/g in series [3] came to 80%. In the series with gray mold of cucumber (setting [8]), the inhibition of growth at 100 µg/g was found to be 49%. Besides, the pest or weed control at 500 µg/g in the series with Downy Mildew of Cucumber came out at 50%. For the same compound, in [4], the pest or weed control at 500 µg/g amounted to 60%.

As for `Cc1ncc(Cn2cc(COc3ccc([N+](=O)[O-])cc3[N+](=O)[O-])nn2)c(N)n1` [Compound 8], the melting point was 210 to 211 °C. In series [2], the pest or weed control at 500 µg/g was 70%. For the same compound, the pest or weed control at 500 µg/g in series [3] is 70%. The inhibition of growth at 100 µg/g in the series with gray mold of cucumber (setting [8]) was found to be 54%. In addition, in the series with Downy Mildew of Cucumber, the pest or weed control at 500 µg/g turned out to be 60%. In addition, in [4], the pest or weed control at 500 µg/g was 60%.
